Assay in all cases: Radiolabeled ATP kinase assay, panel of 371 kinases (Table S6)
Common to all, as to assay type: biochemical

Assay [1] deals with T1, panel of 371 human kinases (Homo sapiens, UniProt P57078).
T1 construct: purchased Reaction Biology Corp
Conditions: RIPK4; 0.1 μM; 10 μM ATP; read-out: % Enzyme Activity (relative to DMSO controls). The source says: (§1) ; FIG. 38C). […]. Further targeted analyses, such as genetic knock-down or knock-out, may be warranted to parse the role of these additional kinases in our model of neurodegeneration.

Assay [2] deals with T2, panel of 371 human kinases (Homo sapiens, UniProt P27361).
T2 construct: purchased Reaction Biology Corp
Conditions: ERK1; 0.1 μM; 10 μM ATP; read-out: % Enzyme Activity (relative to DMSO controls).
From the text: as §1

For assay [3], the target named is T3, panel of 371 human kinases (Homo sapiens, UniProt P24723).
T3 construct: purchased Reaction Biology Corp
Conditions: PKCeta; 0.1 μM; 10 μM ATP; read-out: % Enzyme Activity (relative to DMSO controls).
From the text: as §1

Assay [4] addresses T4, panel of 371 human kinases (Homo sapiens, UniProt Q13043).
T4 construct: purchased Reaction Biology Corp
Conditions: MST1/STK4; 0.1 μM; 10 μM ATP; read-out: % Enzyme Activity (relative to DMSO controls).
From the text: as §1

For assay [5], the target named is T5, panel of 371 human kinases (Homo sapiens, UniProt Q9UM73).
T5 construct: purchased Reaction Biology Corp
Conditions: ALK; 0.1 μM; 10 μM ATP; read-out: % Enzyme Activity (relative to DMSO controls).
From the text: as §1

Assay [6] addresses T6, panel of 371 human kinases (Homo sapiens, UniProt O00444).
T6 construct: purchased Reaction Biology Corp
Conditions: PLK4/SAK; 0.1 μM; 10 μM ATP; read-out: % Enzyme Activity (relative to DMSO controls).
From the text: as §1

The target of assay [7] is T7, panel of 371 human kinases (Homo sapiens, UniProt P43405).
T7 construct: purchased Reaction Biology Corp
Conditions: SYK; 0.1 μM; 10 μM ATP; read-out: % Enzyme Activity (relative to DMSO controls).
From the text: as §1

The target in assay [8] is T8, panel of 371 human kinases (Homo sapiens, UniProt P54762).
T8 construct: purchased Reaction Biology Corp
Conditions: EPHB1; 0.1 μM; 10 μM ATP; read-out: % Enzyme Activity (relative to DMSO controls).
From the text: as §1

Assay [9] deals with T9, panel of 371 human kinases (Homo sapiens, UniProt P14616).
T9 construct: purchased Reaction Biology Corp
Conditions: IRR/INSRR; 0.1 μM; 10 μM ATP; read-out: % Enzyme Activity (relative to DMSO controls).
From the text: as §1

Assay [10] deals with T10, panel of 371 human kinases (Homo sapiens, UniProt Q9BYP7).
T10 construct: purchased Reaction Biology Corp
Conditions: WNK3; 0.1 μM; 10 μM ATP; read-out: % Enzyme Activity (relative to DMSO controls).
From the text: as §1

Assay [11] has as its target T11, panel of 371 human kinases (Homo sapiens, UniProt Q9UBS0).
T11 construct: purchased Reaction Biology Corp
Conditions: p70S6Kb/RPS6KB2; 0.1 μM; 10 μM ATP; read-out: % Enzyme Activity (relative to DMSO controls).
From the text: as §1

The target of assay [12] is T12, panel of 371 human kinases (Homo sapiens, UniProt P49759).
T12 construct: purchased Reaction Biology Corp
Conditions: CLK1; 0.1 μM; 10 μM ATP; read-out: % Enzyme Activity (relative to DMSO controls).
From the text: as §1

In assay [13] the target is T13, panel of 371 human kinases (Homo sapiens, UniProt P78362).
T13 construct: purchased Reaction Biology Corp
Conditions: SRPK2; 0.1 μM; 10 μM ATP; read-out: % Enzyme Activity (relative to DMSO controls).
From the text: as §1

Assay [14] addresses T14, panel of 371 human kinases (Homo sapiens, UniProt P54756).
T14 construct: purchased Reaction Biology Corp
Conditions: EPHA5; 0.1 μM; 10 μM ATP; read-out: % Enzyme Activity (relative to DMSO controls).
From the text: as §1

Assay [15] concerns the target T15, panel of 371 human kinases (Homo sapiens, UniProt P36507).
T15 construct: purchased Reaction Biology Corp
Conditions: MEK2; 0.1 μM; 10 μM ATP; read-out: % Enzyme Activity (relative to DMSO controls).
From the text: as §1

The target in assay [16] is T16, panel of 371 human kinases (Homo sapiens, UniProt P35968).
T16 construct: purchased Reaction Biology Corp
Conditions: KDR/VEGFR2; 0.1 μM; 10 μM ATP; read-out: % Enzyme Activity (relative to DMSO controls).
From the text: as §1

Assay [17] concerns the target T17, panel of 371 human kinases (Homo sapiens, UniProt P52333).
T17 construct: purchased Reaction Biology Corp
Conditions: JAK3; 0.1 μM; 10 μM ATP; read-out: % Enzyme Activity (relative to DMSO controls).
From the text: as §1

Assay [18] has as its target T18, panel of 371 human kinases (Homo sapiens, UniProt P45984).
T18 construct: purchased Reaction Biology Corp
Conditions: JNK2; 0.1 μM; 10 μM ATP; read-out: % Enzyme Activity (relative to DMSO controls).
From the text: as §1

Assay [19] has as its target T19, panel of 371 human kinases (Homo sapiens, UniProt Q9BYT3).
T19 construct: purchased Reaction Biology Corp
Conditions: STK33; 0.1 μM; 10 μM ATP; read-out: % Enzyme Activity (relative to DMSO controls).
From the text: as §1

Assay [20] concerns the target T20, panel of 371 human kinases (Homo sapiens, UniProt Q02156).
T20 construct: purchased Reaction Biology Corp
Conditions: PKCepsilon; 0.1 μM; 10 μM ATP; read-out: % Enzyme Activity (relative to DMSO controls).
From the text: as §1

For assay [21], the target named is T21, panel of 371 human kinases (Homo sapiens, UniProt P42685).
T21 construct: purchased Reaction Biology Corp
Conditions: FRK/PTK5; 0.1 μM; 10 μM ATP; read-out: % Enzyme Activity (relative to DMSO controls).
From the text: as §1

Assay [22] concerns the target T22, panel of 371 human kinases (Homo sapiens, UniProt Q96KB5).
T22 construct: purchased Reaction Biology Corp
Conditions: PBK/TOPK; 0.1 μM; 10 μM ATP; read-out: % Enzyme Activity (relative to DMSO controls).
From the text: as §1

Assay [23] has as its target T23, panel of 371 human kinases (Homo sapiens, UniProt Q16620).
T23 construct: purchased Reaction Biology Corp
Conditions: TRKB; 0.1 μM; 10 μM ATP; read-out: % Enzyme Activity (relative to DMSO controls).
From the text: as §1

Assay [24] addresses T24, panel of 371 human kinases (Homo sapiens, UniProt Q9NRM7).
T24 construct: purchased Reaction Biology Corp
Conditions: LATS2; 0.1 μM; 10 μM ATP; read-out: % Enzyme Activity (relative to DMSO controls).
From the text: as §1

Structures are written as SMILES.

T1 sequence (P57078 whole entry): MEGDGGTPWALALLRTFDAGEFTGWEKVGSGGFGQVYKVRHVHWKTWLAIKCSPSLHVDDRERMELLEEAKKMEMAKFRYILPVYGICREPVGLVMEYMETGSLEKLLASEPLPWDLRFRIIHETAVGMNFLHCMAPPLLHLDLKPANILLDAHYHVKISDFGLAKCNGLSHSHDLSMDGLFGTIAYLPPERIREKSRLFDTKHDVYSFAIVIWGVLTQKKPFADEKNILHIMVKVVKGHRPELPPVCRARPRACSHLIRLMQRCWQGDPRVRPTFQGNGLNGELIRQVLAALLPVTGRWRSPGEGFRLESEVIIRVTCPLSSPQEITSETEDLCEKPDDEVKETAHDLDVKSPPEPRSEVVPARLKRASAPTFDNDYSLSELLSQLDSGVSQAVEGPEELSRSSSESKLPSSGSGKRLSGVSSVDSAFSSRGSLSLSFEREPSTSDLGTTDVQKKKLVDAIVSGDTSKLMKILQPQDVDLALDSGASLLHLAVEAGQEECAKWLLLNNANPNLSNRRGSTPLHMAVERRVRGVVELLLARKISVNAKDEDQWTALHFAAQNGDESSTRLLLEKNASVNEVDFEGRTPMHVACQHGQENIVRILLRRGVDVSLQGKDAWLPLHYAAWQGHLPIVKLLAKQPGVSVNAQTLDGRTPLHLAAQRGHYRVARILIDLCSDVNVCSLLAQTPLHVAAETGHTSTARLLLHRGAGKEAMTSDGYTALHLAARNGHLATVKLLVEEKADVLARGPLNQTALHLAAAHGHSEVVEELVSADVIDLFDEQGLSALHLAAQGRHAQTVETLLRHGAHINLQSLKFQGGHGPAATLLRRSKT
T15 sequence (P36507 whole entry): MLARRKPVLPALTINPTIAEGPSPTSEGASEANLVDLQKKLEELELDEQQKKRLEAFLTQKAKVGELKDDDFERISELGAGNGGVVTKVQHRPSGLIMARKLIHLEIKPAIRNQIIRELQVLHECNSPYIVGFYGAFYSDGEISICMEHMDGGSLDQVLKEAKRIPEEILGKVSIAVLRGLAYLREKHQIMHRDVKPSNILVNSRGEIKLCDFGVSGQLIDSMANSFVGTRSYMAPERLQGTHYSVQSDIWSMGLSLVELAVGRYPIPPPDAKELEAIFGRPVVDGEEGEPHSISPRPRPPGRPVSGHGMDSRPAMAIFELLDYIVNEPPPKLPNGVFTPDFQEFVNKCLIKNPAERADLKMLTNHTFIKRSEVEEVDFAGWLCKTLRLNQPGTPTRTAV
T10 sequence (Q9BYP7 whole entry): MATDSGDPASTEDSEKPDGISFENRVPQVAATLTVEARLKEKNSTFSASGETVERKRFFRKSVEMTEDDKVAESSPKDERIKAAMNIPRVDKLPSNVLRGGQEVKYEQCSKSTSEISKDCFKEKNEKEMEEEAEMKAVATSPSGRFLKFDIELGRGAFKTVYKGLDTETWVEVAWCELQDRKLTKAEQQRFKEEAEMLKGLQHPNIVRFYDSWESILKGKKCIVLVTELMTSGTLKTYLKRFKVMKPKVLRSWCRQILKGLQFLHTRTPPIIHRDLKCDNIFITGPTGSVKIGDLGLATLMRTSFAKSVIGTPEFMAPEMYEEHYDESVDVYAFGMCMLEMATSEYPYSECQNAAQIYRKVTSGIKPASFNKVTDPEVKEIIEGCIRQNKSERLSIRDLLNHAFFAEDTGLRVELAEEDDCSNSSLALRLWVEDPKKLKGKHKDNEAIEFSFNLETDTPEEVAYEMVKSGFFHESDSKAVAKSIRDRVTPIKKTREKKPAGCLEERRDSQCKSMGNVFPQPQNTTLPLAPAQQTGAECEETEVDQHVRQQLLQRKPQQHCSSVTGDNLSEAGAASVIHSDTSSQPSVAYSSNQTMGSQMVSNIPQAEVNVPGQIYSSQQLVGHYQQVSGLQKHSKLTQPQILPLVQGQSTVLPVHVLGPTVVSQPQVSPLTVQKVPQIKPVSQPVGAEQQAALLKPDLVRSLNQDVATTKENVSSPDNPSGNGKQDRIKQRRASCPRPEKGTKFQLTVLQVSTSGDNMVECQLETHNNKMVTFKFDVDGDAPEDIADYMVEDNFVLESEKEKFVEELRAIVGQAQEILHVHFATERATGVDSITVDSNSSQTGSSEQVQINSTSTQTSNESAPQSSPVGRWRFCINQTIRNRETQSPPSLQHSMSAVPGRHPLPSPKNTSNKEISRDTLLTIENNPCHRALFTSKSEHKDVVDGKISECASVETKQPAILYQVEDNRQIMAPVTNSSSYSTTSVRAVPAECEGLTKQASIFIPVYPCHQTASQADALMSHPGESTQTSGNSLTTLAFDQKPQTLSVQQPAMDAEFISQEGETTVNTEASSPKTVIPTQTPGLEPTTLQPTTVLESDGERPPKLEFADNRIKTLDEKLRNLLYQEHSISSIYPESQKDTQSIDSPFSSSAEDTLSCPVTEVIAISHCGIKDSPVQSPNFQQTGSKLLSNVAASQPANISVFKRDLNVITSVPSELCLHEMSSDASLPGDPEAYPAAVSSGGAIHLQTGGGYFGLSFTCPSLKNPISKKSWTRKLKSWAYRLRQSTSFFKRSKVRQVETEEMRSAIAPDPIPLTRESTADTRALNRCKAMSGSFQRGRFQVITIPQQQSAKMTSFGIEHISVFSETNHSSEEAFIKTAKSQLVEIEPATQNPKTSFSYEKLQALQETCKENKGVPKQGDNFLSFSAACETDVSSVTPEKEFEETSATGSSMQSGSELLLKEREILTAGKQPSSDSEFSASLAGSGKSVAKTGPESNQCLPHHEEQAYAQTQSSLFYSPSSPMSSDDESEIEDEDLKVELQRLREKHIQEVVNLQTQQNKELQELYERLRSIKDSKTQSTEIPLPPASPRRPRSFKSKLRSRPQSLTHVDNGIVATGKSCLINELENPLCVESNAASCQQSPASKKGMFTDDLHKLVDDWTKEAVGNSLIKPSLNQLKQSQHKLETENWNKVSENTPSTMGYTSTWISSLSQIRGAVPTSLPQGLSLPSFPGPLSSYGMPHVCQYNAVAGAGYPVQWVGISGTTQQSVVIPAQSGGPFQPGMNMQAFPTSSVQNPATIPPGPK
T2 sequence (P27361 whole entry): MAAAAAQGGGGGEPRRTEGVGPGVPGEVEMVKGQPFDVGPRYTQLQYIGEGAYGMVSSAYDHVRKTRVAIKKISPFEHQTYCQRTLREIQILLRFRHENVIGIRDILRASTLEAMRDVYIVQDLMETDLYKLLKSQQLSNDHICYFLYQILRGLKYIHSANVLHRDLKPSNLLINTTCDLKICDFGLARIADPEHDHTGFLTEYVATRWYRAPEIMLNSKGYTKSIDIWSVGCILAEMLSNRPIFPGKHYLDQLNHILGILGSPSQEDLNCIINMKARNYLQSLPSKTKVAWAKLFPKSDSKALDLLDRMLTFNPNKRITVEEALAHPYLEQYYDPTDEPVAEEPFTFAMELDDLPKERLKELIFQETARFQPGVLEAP
T5 sequence (Q9UM73 19-1620): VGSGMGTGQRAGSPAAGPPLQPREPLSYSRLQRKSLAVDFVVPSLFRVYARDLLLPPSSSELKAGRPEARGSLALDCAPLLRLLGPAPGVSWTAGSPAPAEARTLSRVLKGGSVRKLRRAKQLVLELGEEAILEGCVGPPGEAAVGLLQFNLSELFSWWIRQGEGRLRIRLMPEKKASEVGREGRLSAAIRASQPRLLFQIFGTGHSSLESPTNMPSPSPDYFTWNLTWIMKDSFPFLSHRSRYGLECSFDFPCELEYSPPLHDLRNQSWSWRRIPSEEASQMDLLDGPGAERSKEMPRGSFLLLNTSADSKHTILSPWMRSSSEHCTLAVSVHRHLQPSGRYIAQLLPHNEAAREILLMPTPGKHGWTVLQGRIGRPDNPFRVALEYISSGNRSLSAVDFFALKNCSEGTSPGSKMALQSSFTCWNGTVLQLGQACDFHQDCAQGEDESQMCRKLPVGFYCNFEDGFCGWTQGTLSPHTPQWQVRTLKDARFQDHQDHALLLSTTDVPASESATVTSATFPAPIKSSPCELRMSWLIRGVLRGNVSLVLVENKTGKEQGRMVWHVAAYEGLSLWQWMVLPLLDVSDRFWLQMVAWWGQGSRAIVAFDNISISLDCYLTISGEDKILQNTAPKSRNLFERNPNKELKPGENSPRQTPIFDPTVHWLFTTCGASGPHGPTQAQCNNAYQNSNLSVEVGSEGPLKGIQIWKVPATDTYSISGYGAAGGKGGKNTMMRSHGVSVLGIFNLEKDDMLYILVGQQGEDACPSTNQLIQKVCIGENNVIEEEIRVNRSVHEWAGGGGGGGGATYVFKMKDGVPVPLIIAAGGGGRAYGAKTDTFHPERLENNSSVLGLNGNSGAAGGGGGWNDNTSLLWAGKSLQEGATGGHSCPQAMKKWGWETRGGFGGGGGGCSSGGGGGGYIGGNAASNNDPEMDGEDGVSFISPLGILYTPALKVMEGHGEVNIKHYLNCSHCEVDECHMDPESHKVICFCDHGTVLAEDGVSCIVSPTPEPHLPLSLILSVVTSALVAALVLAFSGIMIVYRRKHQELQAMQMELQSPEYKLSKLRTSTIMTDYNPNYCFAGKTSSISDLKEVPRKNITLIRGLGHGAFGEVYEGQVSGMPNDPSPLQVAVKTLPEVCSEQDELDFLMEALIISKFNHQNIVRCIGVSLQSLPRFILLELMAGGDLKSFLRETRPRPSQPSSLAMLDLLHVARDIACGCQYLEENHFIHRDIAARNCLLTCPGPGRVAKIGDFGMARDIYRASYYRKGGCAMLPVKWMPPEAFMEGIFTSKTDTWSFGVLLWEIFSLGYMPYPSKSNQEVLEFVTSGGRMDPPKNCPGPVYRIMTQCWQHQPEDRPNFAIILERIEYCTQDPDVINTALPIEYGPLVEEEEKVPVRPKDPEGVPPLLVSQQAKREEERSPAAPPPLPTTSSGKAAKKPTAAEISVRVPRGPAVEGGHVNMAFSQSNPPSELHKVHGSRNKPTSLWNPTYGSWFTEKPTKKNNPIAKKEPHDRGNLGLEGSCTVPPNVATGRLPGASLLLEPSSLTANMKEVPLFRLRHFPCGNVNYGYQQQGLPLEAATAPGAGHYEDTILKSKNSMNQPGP

Regarding `CN1CCN(Cc2ccc(-c3cnc4[nH]cc(-c5ccc6[nH]ccc6c5)c4c3)cc2)CC1` [Compound 1, 3-(1H-Indol-5-yl)-5-(4-((4-methylpiperazin-1-yl)methyl)phenyl)-1H-pyrrolo[2,3-b]pyridine, reference compound], the remaining activity at 0.1 µM in assay [1] came to 98.3%; in assay [2], 86%; in assay [3] it was 103%; in assay [4], 80%; in assay [5], 73.8%; in assay [6] it was 97%. The remaining activity at 0.1 µM in assay [7] turned out to be 89.6%; in assay [8], 83%; in assay [9] it was 50.1%; in assay [10], 93.7%; in [11], 107%; in [12], 58.8%. The remaining activity at 0.1 µM is 80.3% in assay [13]; 94.2% in assay [14]; 86.7% in assay [15]; 76.2% in assay [16]; 90.9% in [17]; 99.4% in [18]. For the same compound, the remaining activity at 0.1 µM in assay [19] was 72.6%; in [20] it was 110%; in assay [21], 91.1%; in [22], 96.8%; in assay [23], 59.3%; in assay [24] it was 83.2%.

With `OCCN1CCN(Cc2ccc(-c3cnc4[nH]cc(-c5cccc(Cl)c5)c4c3)cc2)CC1` [Compound 12k, 2-(4-(4-(3-(3-Chlorophenyl)-1H-pyrrolo[2,3-b]pyridin-5-yl)benzyl)piperazin-1-yl)ethan-1-ol], the remaining activity at 0.1 µM was found to be 98% in assay [1]; 92.8% in assay [2]; 94.6% in assay [3]; 75.9% in assay [4]; 85.3% in assay [5]; 93.4% in assay [6]. In addition, the remaining activity at 0.1 µM is 93.9% in assay [7]; 98.3% in [8]; 89.9% in assay [9]; 82.2% in [10]; 95% in [11]; 68.6% in assay [12]. Further, the remaining activity at 0.1 µM was determined as 93.6% in assay [13]; 98.8% in assay [14]; 93.1% in assay [15]; 84.7% in [16]; 76.2% in assay [17]; 97% in assay [18]. In addition, the remaining activity at 0.1 µM in assay [19] was found to be 88.6%; in assay [20], 98.6%; in assay [21] it was 98.3%; in [22], 97.1%; in [23] it was 77.4%; in assay [24], 88.1%.

The record behind these values is US12227500B2, “Substituted pyrrolo[2,3-b]pyridines for suppressing toxic endoplasmic reticulum stress” (THE TRUSTEES OF COLUMBIA UNIVERSITY IN THE CITY OF NEW YORK, priority 2018, dated 2025).
